Reference: US6897200B1, “Oligonucleotide delivery systems for camptothecins” (University of Kentucky Research Foundation, priority 1998, dated 2005)

Legend:
[1] = system: dsDNA oligonucleotide (dG-dC)15; experiment: Lactone ring hydrolysis in PBS in the presence of (dG-dC)15 (reversed-phase HPLC); conditions: for % Lactose at Equilibrium: pH 7.4, 10 uM drug; for Lactone levels following three hours of incubation: (dG-dC)15 ~30 mM base, PBS pH 7.4, room temperature
[2] = system: single-strand DNA (ssDNA) (dT)30; experiment: Lactone stability in the presence of single-strand DNA (HPLC); assay type: physicochemical; conditions: ~33 mM base (dT)30; dsDNA 10- to 100-fold more dilute gives approximately equal stabilization
Excerpt: Note how the presence of DNA markedly stabilizes the biologically-active form of the camptothecins drugs. […] . But it is clear from our work that camptothecin drugs can interact with ssDNA as well as RNA (see FIGS. 4 through 7) and these interactions stabilize the biologically-active lactone forms of these agents.

[3] = system: dsDNA oligonucleotide (dA-dT)15; experiment: Lactone ring hydrolysis in PBS in the presence of (dA-dT)15 (reversed-phase HPLC); conditions: for % Lactose at Equilibrium: pH 7.4, 10 uM drug; for Lactone levels following three hours of incubation: (dA-dT)15 ~30 mM base, PBS pH 7.4, room temperature
[4] = Lactone ring hydrolysis in PBS in the absence of DNA (reversed-phase HPLC); conditions: for % Lactose at Equilibrium: PBS buffer, pH 7.4, 10 uM drug; for percent lactone at equilibrium: absence of DNA, 10 μM, incubated 3 hours, PBS pH 7.4, room temperature
[5] = system: duplex DNA oligonucleotides (dG-dC)15 or (dA-dT)15; experiment: UV absorption spectra of drug lactone with duplex DNA oligonucleotides; conditions: for DNA sequence preference (UV and HPLC data): (dG-dC)15 versus (dA-dT)15; for UV spectral change in the presence of DNA: PBS pH 5, 10 μM drug, (dG-dC)15 16 mM base or (dA-dT)15 24 mM base
dsDNA = experiment: Relactonization of carboxylate forms in dsDNA solutions (HPLC); conditions: ~30 mM base dsDNA in PBS, room temperature, after 30 hrs
[6] = system: dsDNA oligonucleotide d(CGTACG); experiment: NMR titration / 2D-NOESY of drug with d(CGTACG); conditions: drug:DNA ratios of 1:1, 2:1 and 3:1
[7] = system: double-stranded DNA (dsDNA); experiment: Fluorescence emission spectra of SN-38 lactone with DNA; assay type: binding; conditions: SN-38 lactone 1 μM, spectra within 2 min
Experimental: FIG. 8 depicts the marked shifting of the fluorescence emission spectra of SN-38 lactone (1 μM final concentration) in the presence of double-stranded DNA (dsDNA). SN38 contains a 10-hydroxy-nctionality which results in the molecule having a fluorescence emission which is highly sensitive to the presence of water in the surrounding microenvironment. […] Note how the agent fluoresces in the 410 nm to 460 nm region when water is not present, but fluoresces at 520 to 530 nm when water is present. […] The fluorophore was directly added to the DNA solution and the spectra recorded immediately (within 2 min.) prior to any significant conversion of the agent to carboxylate form.
To gain mechanistic insight into why the stabilization occurs, fluorescence spectroscopic scans of SN-38 lactone in the presence and absence of DNA were recorded.
Our results thus provide the first evidence that duplex DNA devoid of TopoI may play a functional role in the biological activities of the camptothecin drugs through the promotion of active lactone levels within the cell nucleus. […] The DNA-associated drugs are likely to be in their active lactone forms and ready for the subsequent drug-DNA-enzyme complex formation.

[8] = system: RNA (total RNA from yeast); experiment: Stability of topotecan lactone in the presence of RNA (reversed-phase HPLC); assay type: physicochemical; conditions: 1 μM topotecan
Experimental: FIG. 4 depicts the stability of topotecan in the presence of various concentrations of RNA at 22° C. In these experiments, topotecan (at a final concentration of 1 μM) was incubated in PBS, pH 7.4 in the presence of various concentrations of RNA (total RNA from yeast) for 30 min at 22° C. and analyzed for the fraction of lactone present by reversed-phase HPLC. […] As an example, in the presence of 7.5 mg/ml of RNA there exists a 10% greater amount of the lactone form than found in the absence of RNA.
FIG. 5. Stability of topotecan in the presence of various concentrations of RNA at 37° C. Topotecan (1 μM final concentration) was incubated in PBS, pH 7.4 in the presence of various concentrations of RNA (total RNA from yeast) for 30 min at 37° C. and analyzed for the fraction of lactone present by reversed-phase HPLC. At a RNA concentration of 7.5 mg/ml, 12% more of the lactone form of topotecan is present.
(§1) FIG. 6 represents a comparison of the stability of topotecan in the presence and absence of RNA at 22° C. Topotecan (1 μM final concentration) was incubated in PBS, pH 7.4 either alone (filled circles) or in the presence of 10 mg/ml of RNA (open circles) at 22° C. and analyzed for the fraction of lactone present at different times by reversed-phase HPLC.
as §1, with “7” for “6”, “37°” for “22°”, “in the absence” for “alone”

Structure (SMILES) | % Lactose at Equilibrium ([1]; (dG-dC)15, 22 °C) | % Lactose at Equilibrium ([1]; (dG-dC)15, 37 °C) | Lactone levels following three hours of incubation [1] | effect of ssDNA on lactone stabilization (versus dsDNA) [2] | % Lactose at Equilibrium ([3]; (dA-dT)15, 22 °C) | % Lactose at Equilibrium ([3]; (dA-dT)15, 37 °C) | Lactone levels following three hours of incubation [3] | % Lactose at Equilibrium ([4]; 22 °C) | % Lactose at Equilibrium ([4]; 37 °C) | percent lactone at equilibrium [4] | DNA sequence preference (UV and HPLC data) [5] | UV spectral change in the presence of DNA [5] | active lactone level after relactonization of pure carboxylate form (dsDNA) | drug binding to DNA (2D-NOESY) [6] | direct binding of lactone form to DNA (fluorescence spectral shift) [7] | greater amount of the lactone form than in the absence of RNA ([8]; 7.5 mg/ml RNA, PBS pH 7.4, 30 min, 22 °C) | more of the lactone form present than without RNA ([8]; 7.5 mg/ml RNA, PBS pH 7.4, 30 min, 37 °C) | more of the lactone form present than without RNA ([8]; 10 mg/ml RNA, PBS pH 7.4, after 3 hrs, 22 °C) | more of the lactone form present than without RNA ([8]; 10 mg/ml RNA, PBS pH 7.4, after 3 hrs, 37 °C)
CCc1c2c(nc3ccc(OC(=O)N4CCC(N5CCCCC5)CC4)cc13)-c1cc3c(c(=O)n1C2)COC(=O)[C@]3(O)CC [CPT-11] | −50% | 30 ± 2% | 95% | significantly diminished effects on stabilizing | −50% | 29 ± 2% | 95% | 17 ± 1% | 8 ± 2% | 24% | no signs of any sequence preference | substantial hypochromic and red spectral shift | ~30% | clearly consistent with drug binding to DNA |  |  |  |  | 
CCc1c2c(nc3ccc(O)cc13)-c1cc3c(c(=O)n1C2)COC(=O)[C@]3(O)CC [SN-38, 7-ethyl-10-hydroxycamptothecin] |  |  |  |  |  |  |  |  |  |  |  |  |  |  | binds the DNA |  |  |  | 
CC[C@@]1(O)C(=O)OCc2c1cc1n(c2=O)Cc2cc3c(CN(C)C)c(O)ccc3nc2-1 [TPT, topotecan] | −50% | 26 ± 2% | 95% | significantly diminished effects on stabilizing | −50% | 19 ± 2% | 78% | 15 ± 1% | 10 ± 1% | 12% | sequence preference of (dG-dC)15 over (dA-dT)15 | substantial hypochromic and red spectral shift | ~30% | clearly consistent with drug binding to DNA |  | 10% | 12% | 25% | 15%
CC[C@@]1(O)C(=O)OCc2c1cc1n(c2=O)Cc2cc3ccccc3nc2-1 [camptothecin] |  |  | above 80% |  |  |  |  |  |  |  |  |  |  |  |  |  |  |  | 
